Data: publication PMC4492764, “Evaluation of biomarkers for in vitro prediction of drug-induced nephrotoxicity: comparison of HK-2, immortalized human proximal tubule epithelial, and primary cultures of human proximal tubular cells” (Pharmacology Research & Perspectives, 2015)
Counter-ions that a name gives are not always drawn.

Experiments:
Assay type in all cases: cell-based, human
KIM-1 mRNA [1] = assay: KIM-1 mRNA qRT-PCR in HK-2 cells; parameters: key to Upregulation of KIM-1 HK-2 R: +: statistically significant increase; −: no significant increase; settings: for Upregulation of KIM-1 HK-2 R: mRNA levels, 72 h time point
Procedure: (§1) HK-2 cells (ATCC CRL-2190; Manassas, VA) were maintained in DMEM/F12 (Life Technologies; Sydney, NSW, Australia) supplemented with 5 μg/mL insulin, 5 μg/mL transferrin, 5 ng/mL sodium selenite (ITS; Roche; […] (passage 2) and culture kits were purchased from Lonza. […] were maintained in Renal Epithelial Cell BulletKitTM (CC-3190, Lonza) at 37°C and 5% CO2 atmosphere. Cells were passaged to 96-well plates with a density of 4000 cells/well. After 24 h culture, compounds with different concentration series were added into each well and incubated for 4, 24, 48, and 72 h. HK-2 and […] were treated with compounds for 4, 24, 48, and 72 h, then the cells were lysed and the RNA reverse transcribed with the TaqMan® Gene Expression Cells-to-CTTM Kit (Life Technologies) according to the manufacturer's instructions. […] Hs00273334_m1), Lcn2 (NGAL; Hs01008571_m1), and Csf1 (M-CSF; Hs00174164_m1). All probes span an exon-exon junction. The real-time quantitative reverse transcription PCR (qRT-PCR) was performed in a 10 μl final reaction mixture using a ViiA 7TM system (Applied Biosystems®, Sydney, NSW, Australia) based on the following thermo cycling conditions: 10 min at 95°C for one cycle, 15 sec at 95°C, 60 sec at 60°C for 40 cycles. The ViiA 7TM software was used for data analysis with Hprt1 expression used for normalization. All assays were performed at least three times, with at least two technical replicates in each assay.

KIM-1 = KIM-1 protein ELISA in hRPTECs; parameters: key to Upregulation of KIM-1 hRPTECs P: +: statistically significant increase; −: no significant increase; settings: protein levels in culture medium; 72 h time point
Procedure: (§2) HK-2 cells (ATCC CRL-2190; Manassas, VA) were maintained in DMEM/F12 (Life Technologies; Sydney, NSW, Australia) supplemented with 5 μg/mL insulin, 5 μg/mL transferrin, 5 ng/mL sodium selenite (ITS; Roche; […] (passage 2) and culture kits were purchased from Lonza. […] were maintained in Renal Epithelial Cell BulletKitTM (CC-3190, Lonza) at 37°C and 5% CO2 atmosphere. Cells were passaged to 96-well plates with a density of 4000 cells/well. After 24 h culture, compounds with different concentration series were added into each well and incubated for 4, 24, 48, and 72 h. KIM-1 (DY1750), NGAL (DY1757), and M-CSF (DY216) Duo-Set® ELISA kits were purchased from R&D systems (Minneapolis, MN). Sandwich-ELISA experiments were conducted following the manufacturer's instructions with slight modifications. A 96-well microplate (MaxiSorp®, Nunc, Thermo Scientific, NSW, Australia) was coated with 100 μL of capture antibodies (diluted 1:200 in PBS) and incubated overnight. The plate was then washed twice with washing buffer (0.05% Tween 20 in PBS, pH 7.4) and blocked by adding 300 μL of blocking buffer (1% bovine serum albumin (BSA) in PBS) for 1 h at room temperature. After washing two times with PBS, 100 μL of samples (cell culture media or cell lysates) or standards were then added to each well and incubated for 2 h at room temperature. The biotinylated detection antibodies were then diluted in blocking buffer, added to each well and incubated for 2 h. Horseradish peroxidase (HRP)-labeled streptavidin (100 μL) was then added to bind to detection antibodies. To each well, 100 μL of substrate solution (1:1 mixture of H2O2 and tetramethylbenzidine) was added and incubated for 20 min before reaction termination with 50 μL of stop solution (2N H2SO4). The optical density of each well was measured at 450 nm using a POLARstar Omega plate reader (BMG Labtech). All assays were performed at least three times, with at least two technical replicates in each assay.

NGAL = NGAL protein ELISA in hRPTECs; parameters: key to Upregulation of NGAL hRPTECs P: +: statistically significant increase; −: no significant increase; settings: for Upregulation of NGAL hRPTECs P: protein levels in culture medium, 72 h time point
Procedure: as §2

KIM-1 mRNA [2] = assay: KIM-1 mRNA qRT-PCR in hRPTECs; parameters: key to Upregulation of KIM-1 hRPTECs R: +: statistically significant increase; −: no significant increase; settings: mRNA levels; 72 h time point
Procedure: as §1

NGAL mRNA = NGAL mRNA qRT-PCR in hRPTECs; parameters: key to Upregulation of NGAL hRPTECs R: +: statistically significant increase; −: no significant increase; settings: for NGAL mRNA levels in hRPTECs: 72 h exposure; for Upregulation of NGAL hRPTECs R: mRNA levels, 72 h time point
Procedure: as §1

Molecule	KIM-1 mRNA transcription level in HK-2 cells (KIM-1 mRNA [1]; 72 h, P < 0.005)	Upregulation of KIM-1 HK-2 R (KIM-1 mRNA [1])	Upregulation of KIM-1 hRPTECs P (KIM-1)	Upregulation of NGAL hRPTECs P (NGAL)	Upregulation of KIM-1 hRPTECs R (KIM-1 mRNA [2])	NGAL mRNA levels in hRPTECs (NGAL mRNA; 10 μmol/L, P < 0.05)	Upregulation of NGAL hRPTECs R (NGAL mRNA)	NGAL protein upregulation in hRPTECs (NGAL; 4 h, culture medium (Fig. S5C))	NGAL mRNA levels in hRPTECs (NGAL mRNA; 100 μmol/L, P < 0.01)
N.N.[Cl][Pt][Cl] [Cisplatin, cisplatin]	increased	+	+	+	−	kept rising	+		
CNC(C)C1CCC(N)C(OC2C(N)CC(N)C(OC3OCC(C)(O)C(NC)C3O)C2O)O1 (stereo not shown) [Gentamicin, gentamicin sulfate]		−	+	+	−		−		
Colistin sulfate		−	+	+	−		+	significant upregulation	kept rising
